Source: patent US8772244B2, “Tubulin inhibitors” (R&D Biopharmaceuticals GmbH, priority 2009, dated 2014)

Tests used:
Assay type in all cases: cell-based
MCF-7 MX100 = experiment: BrdU-Assay, IC-50 against cancer cell line MCF-7 MX100; conditions: MCF7/MX100; MCF-7 MX100, BrdU-Assay
Text: (§1) Determination of the IC-50 Concentration Against Various Cancer Cell Lines
(§2) The activity of some representative example compounds of the present invention has been determined with the BrdU-Assay as described in: Porstmann T., Ternynck T., Avrameas S. (1985) “Quantification of 5-bromo-2-deoxyuridine incorporation into DNA: an enzyme immunoassay for the assessment of the lymphoid cell proliferative response.” J. Immunol. Methods 82: 169-179.

HCT-116 = experiment: BrdU-Assay, IC-50 against cancer cell line HCT-116; conditions: Homo sapiens; HCT-116, BrdU-Assay
Text: as §1, §2

Skov-3 = experiment: BrdU-Assay, IC-50 against cancer cell line Skov-3; conditions: Homo sapiens, SK-OV-3; Skov-3, BrdU-Assay
Text: as §1, §2

MCF-7 TX200 = experiment: BrdU-Assay, IC-50 against cancer cell line MCF-7 TX200; conditions: Homo sapiens; MCF-7 TX200, BrdU-Assay
Text: as §1, §2

MCF-7 = experiment: BrdU-Assay, IC-50 against cancer cell line MCF-7; conditions: Homo sapiens, MCF7; MCF-7, BrdU-Assay
Text: as §1, §2

MCF-7 VP = experiment: BrdU-Assay, IC-50 against cancer cell line MCF-7 VP; conditions: Homo sapiens, MCF7-VP
Text: as §1, §2

Row | Structure (SMILES) | IC50 (MCF-7 MX100) | IC50 (HCT-116) | IC50 (Skov-3) | IC50 (MCF-7 TX200) | IC50 (MCF-7) | IC50 (MCF-7 VP)
1 | CCCN(C(=O)C(NC(=O)C1CCCCN1C)[C@@H](C)CC)[C@H](C[C@@H](OCOC)c1nc(C(=O)N[C@@H](Cc2ccccc2)C[C@H](C)CO)cs1)C(C)C (stereo partly drawn) [MSRD368] | 4.01 nM | 41.1 nM | 29.9 nM | 322 nM | 3.91 nM | 6.38 nM
2 | CCCN(C(=O)C(NC(=O)C1CCCCN1C)[C@@H](C)CC)[C@H](C[C@@H](OC(C)=O)c1nc(C(=O)N[C@H](CO)Cc2ccccc2)cs1)C(C)C (stereo partly drawn) [MSRD390] | 0.2 nM | 1.1 nM | 1.06 nM | 24.4 nM | 0.27 nM | 0.54 nM
3 | CC[C@H](C)C(NC(=O)C1CCCCN1C)C(=O)N[C@H](C[C@@H](OC(C)=O)c1nc(C(=O)N[C@@H](Cc2ccccc2)C[C@H](C)CO)cs1)C(C)C (stereo partly drawn) [SDRD28] | 1.41 nM | 4.31 nM | 3.35 nM | 370 nM | 0.55 nM | 3.04 nM
4 | CC[C@H](C)C(NC(=O)C1CCCCN1C)C(=O)N(C)[C@H](C[C@@H](OC(C)=O)c1nc(C(=O)N[C@@H](Cc2ccccc2)C[C@H](C)CO)cs1)C(C)C (stereo partly drawn) [MSRD345] | 0.28 nM | 1.35 nM | 1.18 nM | 50.6 nM | 0.4 nM | 1.2 nM
5 | CCCN(C(=O)C(NC(=O)C1CCCCN1C)[C@@H](C)CC)[C@H](C[C@@H](OC(C)=O)c1nc(C(=O)N[C@@H](Cc2ccccc2)C[C@H](C)CO)cs1)C(C)C (stereo partly drawn) [MSRD334] | 0.62 nM | 1.06 nM | 1.05 nM | 15.6 nM | 0.57 nM | 0.88 nM
